The target of test [1] is T1, Lysophosphatidic acid receptor 1 (Homo sapiens, UniProt Q92633). Put plainly: Antagonist activity at LPA1 receptor expressed in rat RH7777 cells assessed as inhibition of LPA-induced intracellular calcium concentration. Format: functional, cell-based.
Test [2] addresses T2, Lysophosphatidic acid receptor 2 (Homo sapiens, UniProt Q9HBW0). Description: Activity at LPA2 receptor expressed in rat RH7777 cells assessed as inhibition of LPA-induced intracellular calcium concentration at 30 uM. It counts as functional, cell-based. On the technique in general: Calcium flux is commonly read through the fluorescence of an indicator in the cells.
For test [3], the target named is T3, Lysophosphatidic acid receptor 3 (Homo sapiens) (UniProt Q9UBY5).
T3 sequence (whole entry): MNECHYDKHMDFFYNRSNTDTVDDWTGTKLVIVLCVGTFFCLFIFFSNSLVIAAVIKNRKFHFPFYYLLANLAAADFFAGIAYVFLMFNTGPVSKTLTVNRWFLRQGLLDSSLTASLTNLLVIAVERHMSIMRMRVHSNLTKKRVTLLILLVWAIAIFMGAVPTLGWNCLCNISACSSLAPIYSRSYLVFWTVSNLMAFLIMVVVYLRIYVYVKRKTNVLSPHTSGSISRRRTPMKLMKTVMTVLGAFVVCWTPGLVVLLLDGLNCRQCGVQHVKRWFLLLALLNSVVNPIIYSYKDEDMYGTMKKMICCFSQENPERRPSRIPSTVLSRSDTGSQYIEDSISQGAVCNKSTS
Put plainly: Activity at LPA3 receptor expressed in rat RH7777 cells assessed as inhibition of LPA-induced intracellular calcium concentration at 30 uM. It counts as functional, cell-based.

The target of test [4] is T1, Lysophosphatidic acid receptor 1. Put plainly: Agonist activity at LPA1 receptor expressed in rat RH7777 cells assessed as LPA-induced intracellular calcium response. Format: functional, cell-based.
For test [5], the target named is T2, Lysophosphatidic acid receptor 2. Description: Agonist activity at LPA2 receptor expressed in rat RH7777 cells assessed as LPA-induced intracellular calcium response. Format: functional, cell-based.
The target of test [6] is T4, Lysophosphatidic acid receptor 3 (Homo sapiens, UniProt Q9UBY5).
T4 sequence (Q9UBY5 whole entry): T3 sequence (whole entry)
Description: Agonist activity at LPA3 receptor expressed in rat RH7777 cells assessed as LPA-induced intracellular calcium response. It counts as functional, cell-based.

Test [7] addresses T2, Lysophosphatidic acid receptor 2. Description: Antagonist activity at LPA2 receptor expressed in rat RH7777 cells assessed as inhibition of LPA-induced intracellular calcium concentration. Format: functional, cell-based.
Test [8] has as its target T3, Lysophosphatidic acid receptor 3 (Homo sapiens). Put plainly: (§1) Antagonist activity at LPA3 receptor expressed in rat RH7777 cells assessed as inhibition of LPA-induced intracellular calcium concentration. Format: functional, cell-based.
For test [9], the target named is T1, Lysophosphatidic acid receptor 1. Put plainly: Activity at LPA1 receptor expressed in rat RH7777 cells assessed as inhibition of LPA-induced intracellular calcium concentration at 30 uM. Format: functional, cell-based.
Test [10] deals with T4, Lysophosphatidic acid receptor 3. The description is as §1. Format: functional, cell-based.
In test [11] the target is T3, Lysophosphatidic acid receptor 3 (Homo sapiens). Description: Activity at LPA3 receptor expressed in rat RH7777 cells assessed as potentiation of LPA-induced intracellular calcium concentration. It counts as functional, cell-based.
Test [12] deals with T4, Lysophosphatidic acid receptor 3. Description: Inhibition of LPA3 receptor.

The source made the active and inactive calls. No cut-off for these calls is given here. Peptide text beside a SMILES is read from it. * marks the point of attachment. Dnp = O=[N+]([O-])c1ccc(*)c([N+](=O)[O-])c1 Where only a bound is given, the exact number is not on record here.

T2 sequence (Q9HBW0 whole entry): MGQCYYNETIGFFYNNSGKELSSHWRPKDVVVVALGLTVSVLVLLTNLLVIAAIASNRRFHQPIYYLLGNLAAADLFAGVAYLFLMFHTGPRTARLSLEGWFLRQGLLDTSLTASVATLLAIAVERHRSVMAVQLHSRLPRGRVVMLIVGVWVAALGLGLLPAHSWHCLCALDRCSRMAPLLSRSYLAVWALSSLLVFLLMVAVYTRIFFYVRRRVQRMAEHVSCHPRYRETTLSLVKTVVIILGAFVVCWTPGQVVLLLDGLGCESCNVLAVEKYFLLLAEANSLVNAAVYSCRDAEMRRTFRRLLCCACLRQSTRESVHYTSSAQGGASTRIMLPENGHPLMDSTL
T1 sequence (Q92633 whole entry): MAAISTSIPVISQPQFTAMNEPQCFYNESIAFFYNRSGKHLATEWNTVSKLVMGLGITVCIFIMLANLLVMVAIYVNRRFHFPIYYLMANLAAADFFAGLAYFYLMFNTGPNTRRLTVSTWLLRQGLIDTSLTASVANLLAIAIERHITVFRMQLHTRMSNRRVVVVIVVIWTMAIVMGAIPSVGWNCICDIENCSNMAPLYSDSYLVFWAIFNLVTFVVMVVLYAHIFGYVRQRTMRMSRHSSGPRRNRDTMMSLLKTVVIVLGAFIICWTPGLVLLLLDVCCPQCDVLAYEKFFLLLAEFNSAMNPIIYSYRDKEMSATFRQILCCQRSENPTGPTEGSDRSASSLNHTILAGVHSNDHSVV

A word on the Emax: it is the maximal effect, on the per cent scale that the assay sets. As a reminder, the EC50 is the concentration needed to bring the measured effect to its halfway point. Consider `CCOC(=O)c1ccc(/C=C/c2ccc(S(=O)(=O)O)cc2)cc1`, for which the results for the Emax in [1], in test [2] and in test [3] were 180%, 113% and 214%, respectively. The EC50 in test [4] was > 12300 nM; in [5] it was > 11400 nM; in test [6], > 11800 nM.
For orientation: IC50 means the concentration at which inhibition is half-maximal. Take `Nc1ccc(C(=O)Nc2ccc(C(=O)Nc3ccc4c(O)cc(S(=O)(=O)O)cc4c3)cc2)cc1`: the IC50 was > 7300 nM in test [1] and > 9400 nM in test [7]. Further, the values for the Imax in test [1], in [7] and in [8] were 59.3%, 88% and 53.7%, respectively.
Regarding `O=C(O)/C=C\C(=O)Nc1cccc(NC(=O)Cc2ccccc2)c1`, the Imax in test [9] was determined as 52.2%; in [3], 16%.
The Ki is the equilibrium dissociation constant of an inhibitor or competing ligand from its target. Regarding `O=C(O)/C=C/C(=O)Nc1ccc(-c2ccc(NC(=O)/C=C/C(=O)O)cc2)cc1`, the Imax in test [9] turned out to be 59%. The IC50 in test [7] came to 28.3 nM; in test [10] it was 13800 nM. The Ki was found to be 21.1 nM in [7] and 7020 nM in [10].
With `O=P(O)(O)OC[C@H]1O[C@@H](n2cnc3c(NCc4ccccc4)ncnc32)[C@H](O)[C@@H]1O`, the outcome in [11] was Active.
With `CCCCCCC(=O)OC[C@H](COP(O)(O)=S)OC(=O)CCCCCC`, inhibition in test [12] was half-maximal at 184 nM (IC50).
For the molecule `NCC(=O)N[C@@H](CSc1ccc([N+](=O)[O-])cc1[N+](=O)[O-])C(=O)N[C@@H](CCC(=O)O)C(=O)O` (H-Gly-Cys(Dnp)-Glu-OH), the Imax in [8] was 69.8%. Moreover, the 50% inhibitory concentration (IC50) in [10] turned out to be 24 nM.
Take `O=C(O)/C=C\C(=O)Nc1cccc(NC(=O)c2ccccc2)c1`: the figures for the Imax in test [9] and in [2] were 34.6% and 46%, respectively. Also, the half-inhibitory concentration (IC50) in test [10] was determined as 347 nM. In addition, in [10], the inhibitory constant (Ki) came to 317 nM.
As for `O=C(O)/C=C/C(=O)Nc1cccc(NC(=O)/C=C/C(=O)O)c1C(=O)O`, the results for the Imax in test [7] and in test [8] were 53.3% and 81.7%, respectively.
For `O=C(O)/C=C/C(=O)Nc1cccc(NC(=O)/C=C/C(=O)O)c1`, in test [1], the IC50 was determined as 220 nM and the Ki was determined as 50 nM. Also, in test [7], the IC50 is 21.8 nM and the Ki stood at 20.8 nM.
`CCCCCCC(=O)OC[C@H](COP(=O)(O)O)OC(=O)CCCCCC`: the IC50 in test [12] turned out to be 143 nM.
As to `O=C(O)/C=C/C(=O)Nc1ccc(Oc2cccc(Oc3ccc(NC(=O)/C=C/C(=O)O)cc3)c2)cc1`, the IC50 in test [1] turned out to be 27400 nM; in test [7], 8.9 nM; in test [10] it was 1230 nM. Moreover, the figures for the Ki in test [1], in test [7] and in test [10] were 13500 nM, 7.2 nM and 310 nM, respectively.

These data come from ChEMBL document CHEMBL1150359, “Identification of non-lipid LPA3 antagonists by virtual screening” (Bioorg Med Chem, 2008).
